For 25 molecules, IC50 results are on record in US20150258101A1 (Proximagen Limited, priority 2014, published 2015).

Experiment [1] has as its target T1, purified recombinantly expressed human SSAO (Homo sapiens, UniProt Q16853).
T1 construct: made in house
T1 sequence (Q16853 1-763): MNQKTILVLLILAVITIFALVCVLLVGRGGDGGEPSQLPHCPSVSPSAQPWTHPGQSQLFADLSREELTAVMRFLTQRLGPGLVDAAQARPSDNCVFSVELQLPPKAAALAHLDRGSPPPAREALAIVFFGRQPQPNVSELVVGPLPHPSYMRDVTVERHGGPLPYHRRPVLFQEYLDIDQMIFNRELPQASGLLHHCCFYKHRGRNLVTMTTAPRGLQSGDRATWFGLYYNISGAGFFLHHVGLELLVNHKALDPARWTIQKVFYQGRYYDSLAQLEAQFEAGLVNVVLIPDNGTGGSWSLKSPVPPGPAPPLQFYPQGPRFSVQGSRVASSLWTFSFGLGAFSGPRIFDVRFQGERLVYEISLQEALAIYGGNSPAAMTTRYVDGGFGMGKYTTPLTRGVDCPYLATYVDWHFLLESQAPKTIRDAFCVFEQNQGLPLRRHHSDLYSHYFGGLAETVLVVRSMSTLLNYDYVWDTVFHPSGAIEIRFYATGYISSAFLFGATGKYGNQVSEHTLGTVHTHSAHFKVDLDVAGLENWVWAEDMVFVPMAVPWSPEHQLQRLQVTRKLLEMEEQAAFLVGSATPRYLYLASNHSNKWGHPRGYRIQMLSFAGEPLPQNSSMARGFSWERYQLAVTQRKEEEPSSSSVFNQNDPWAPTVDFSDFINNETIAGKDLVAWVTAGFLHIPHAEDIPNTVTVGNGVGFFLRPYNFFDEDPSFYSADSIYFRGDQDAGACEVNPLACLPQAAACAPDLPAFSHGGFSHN
The experiment can be described thus: SSAO enzyme inhibition assay (benzylamine substrate; hydrogen peroxide/HRP-coupled or 14C aldehyde detection). It is filed as biochemical. The settings on record: SSAO inhibitory activity, RT. A digest of the protocol: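 IC50 values came from a four-parameter logistic fit of % signal decrease versus DMSO control, with no-enzyme background subtracted. Two read-outs were used with human recombinant SSAO after ~15 min compound pre-incubation at RT. In the H2O2/HRP-Amplex read-out, enzyme was 1 ug/ml and benzylamine 100 uM (pH 7.4 phosphate), with resorufin fluorescence followed 1-2 h. In the 14C-benzaldehyde read-out (PBS), enzyme was 10 ug/ml and benzylamine 40 uM, run 1 h then acid-stopped.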

Experiment [2] addresses T2, human ether a go-go related gene (hERG) K+ channel (Homo sapiens, UniProt Q12809).
T2 construct: a Chinese Hamster Lung cell line stably expressing the full length hERG channel; expressed in transfected cells; host or cells: Chinese Hamster Lung cell line
The experiment can be described thus: hERG assay, IonWorks patch clamp electrophysiology. The format is cell-based. The settings on record: Chinese Hamster Lung cell line stably expressing hERG; max assay concentration 11 uM. How it is done: Compounds of the invention were tested for inhibition of the human ether a go-go related gene (hERG) K^+ channel using IonWorks patch clamp electrophysiology. 8 Point concentration-response curves were generated on two occasions using 3-fold serial dilutions from the maximum assay concentration (11 uM). Electrophysiological recordings were made from a Chinese Hamster Lung cell line stably expressing the full length hERG channel. Single cell ion currents were measured in the perforated patch clamp configuration (100 ug/mL amphoterocin) at room temperature using an IonWorks Quattro instrument. The internal solution contained 140 mM KCl, 1 mM MgCl2, 1 mM EGTA and 20 mM HEPES and was buffered to pH 7.3. The external solution contained 138 mM NaCl, 2.7 mM KCl, 0.9 mM CaCl2, 0.5 mM MgCl2, 8 mM Na2HPO4 and 1.5 mM KH2PO4, and was buffered to pH 7.3. […] This sequence was repeated 5 times at a frequency of 0.25 Hz. Currents were measured from the tail step at the 5th pulse, and referenced to the holding current. Compounds were incubated for 6-7 min prior to a second measurement of the hERG signal using an identical pulse train. […] A control compound (quinidine) was used (see Table 20 below).

Molecules are shown by their SMILES. Where only a bound is given, the exact number is not on record here.

In general, IC50 refers to the point on the concentration scale where inhibition reaches its midpoint.

T2 sequence (Q12809 whole entry): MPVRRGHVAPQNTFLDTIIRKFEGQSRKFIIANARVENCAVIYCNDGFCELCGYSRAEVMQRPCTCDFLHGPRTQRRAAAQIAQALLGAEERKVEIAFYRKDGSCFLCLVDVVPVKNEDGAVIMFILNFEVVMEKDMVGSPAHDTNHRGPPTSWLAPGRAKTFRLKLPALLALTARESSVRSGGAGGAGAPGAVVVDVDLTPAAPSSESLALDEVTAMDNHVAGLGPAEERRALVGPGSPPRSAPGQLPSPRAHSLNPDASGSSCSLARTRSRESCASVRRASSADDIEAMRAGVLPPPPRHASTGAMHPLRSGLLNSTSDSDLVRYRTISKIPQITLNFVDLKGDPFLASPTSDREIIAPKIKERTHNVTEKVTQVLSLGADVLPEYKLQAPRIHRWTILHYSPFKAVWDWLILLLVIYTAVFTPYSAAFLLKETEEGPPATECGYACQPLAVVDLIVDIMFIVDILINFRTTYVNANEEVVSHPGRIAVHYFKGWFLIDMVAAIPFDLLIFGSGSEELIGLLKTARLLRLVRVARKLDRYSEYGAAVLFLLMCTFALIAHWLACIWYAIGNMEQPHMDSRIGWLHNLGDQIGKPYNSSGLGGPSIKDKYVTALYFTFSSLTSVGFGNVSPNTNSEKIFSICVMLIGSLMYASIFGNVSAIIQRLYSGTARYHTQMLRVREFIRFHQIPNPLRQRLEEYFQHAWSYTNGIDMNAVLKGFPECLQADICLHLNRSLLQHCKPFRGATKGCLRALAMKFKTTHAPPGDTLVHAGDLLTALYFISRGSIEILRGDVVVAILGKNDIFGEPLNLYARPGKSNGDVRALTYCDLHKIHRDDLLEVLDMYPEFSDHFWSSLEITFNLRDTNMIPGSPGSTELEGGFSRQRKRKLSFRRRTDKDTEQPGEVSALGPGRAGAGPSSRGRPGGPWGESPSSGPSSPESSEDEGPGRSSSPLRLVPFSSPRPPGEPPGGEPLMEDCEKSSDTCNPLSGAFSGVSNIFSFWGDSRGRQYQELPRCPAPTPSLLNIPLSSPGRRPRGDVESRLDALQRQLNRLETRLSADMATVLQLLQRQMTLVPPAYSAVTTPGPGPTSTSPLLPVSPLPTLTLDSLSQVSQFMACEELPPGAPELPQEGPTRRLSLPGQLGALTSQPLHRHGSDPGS

Take `C[C@@H]1CN(c2ncc(-c3nc4ccncc4n3-c3ccc(F)cc3)cn2)C[C@H](C)O1` [Example 23, (2R,6S)-4-{5-[3-(4-Fluorophenyl)-3H-imidazo [4,5-c]pyridin-2-yl]pyrimidin-2-yl}-2,6-dimethylmorpholine]: the half-inhibitory concentration (IC50) in experiment [1] was less than 0.05 µM; in experiment [2] it was greater than 10 µM.

For `CC1(C)CN(c2ncc(-c3nc4ccncc4n3-c3ccc(F)cc3)cn2)CCO1` [Example 24, 4-{5-[3-(4-Fluorophenyl)-3H-imidazo[4,5-c]pyridin-2-yl]pyrimidin-2-yl}-2,2-dimethylmorpholine], the IC50 was less than 0.05 µM in experiment [1] and greater than 10 µM in experiment [2].

Turning to `CN1CCN(Cc2ccc(-c3nc4ccncc4n3-c3ccc(Cl)cc3)cc2)CC1` [Example 46, 1-({4-[3-(4-Chlorophenyl)-3H-imidazo[4,5-c]pyridin-2-yl]phenyl}methyl)-4-methylpiperazine; formic acid], the results for the concentration for half-maximal inhibition (IC50) in experiment [1] and in experiment [2] were less than 0.05 µM and greater than 10 µM, respectively.

Take `Clc1ccc(-n2c(-c3ccc(N4CCOCC4)nc3)nc3ccncc32)cc1` [Example 47, 4-{5-[3-(4-Chlorophenyl)-3H-imidazo[4,5-c]pyridin-2-yl]pyridin-2-yl}morpholine]: the IC50 was less than 0.05 µM in experiment [1] and 1 to 10 µM in experiment [2].

In the case of `Clc1ccc(-n2c(-c3ccc(N4CCNCC4)nc3)nc3ccncc32)cc1` [Example 50, 1-{5-[3-(4-Chlorophenyl)-3H-imidazo[4,5-c]pyridin-2-yl]pyridin-2-yl}piperazine], the half-inhibitory concentration (IC50) in experiment [1] is less than 0.05 µM; in experiment [2] it was greater than 10 µM.

On to `Clc1ccc(-n2c(-c3cnc(N4CCOCC4)nc3)nc3ccncc32)cc1` [Example 51, 4-{5-[3-(4-Chlorophenyl)-3H-imidazo[4,5-c]pyridin-2-yl]pyrimidin-2-yl}morpholine], for which the IC50 in experiment [1] is less than 0.05 µM; in experiment [2] it was 1 to 10 µM.

As for `Fc1ccc(-n2c(-c3cnc(N4CCOCC4)nc3)nc3ccncc32)cc1` [Example 52, 4-{5-[3-(4-Fluorophenyl)-3H-imidazo[4,5-c]pyridin-2-yl]pyrimidin-2-yl}morpholine], the IC50 in experiment [1] was less than 0.05 µM; in experiment [2], greater than 10 µM.

As for `Cc1ccc(-n2c(-c3cnc(N4CCOCC4)nc3)nc3ccncc32)c(F)c1` [Example 53, 4-{5-[3-(2-Fluoro-4-methylphenyl)-3H-imidazo[4,5-c]pyridin-2-yl]pyrimidin-2-yl}morpholine], the results for the half-maximal inhibitory concentration (IC50) in experiment [1] and in experiment [2] were 0.2 to 1.2 µM and greater than 10 µM, respectively.

Turning to `Fc1ccc(-n2c(-c3ccc(N4CCOCC4)nc3)nc3ccncc32)cc1` [Example 54, 4-{5-[3-(4-Fluorophenyl)-3H-imidazo[4,5-c]pyridin-2-yl]pyridin-2-yl}morpholine], the IC50 in experiment [1] is 0.2 to 1.2 µM; in experiment [2], greater than 10 µM.

On to `Cc1ccc(-n2c(-c3cnc(N4CCOCC4)nc3)nc3ccncc32)cc1` [Example 57, 4-{5-[3-(4-Methylphenyl)-3H-imidazo[4,5-c]pyridin-2-yl]pyrimidin-2-yl}morpholine], for which the IC50 in experiment [1] is 0.05 to 0.2 µM; in experiment [2], greater than 10 µM.

On to `Cc1ccc(-n2c(-c3ccc(N4CCOCC4)nc3)nc3ccncc32)cc1` [Example 63, 4-{5-[3-(4-Methylphenyl)-3H-imidazo[4,5-c]pyridin-2-yl]pyridin-2-yl}morpholine], for which the IC50 in experiment [1] was 0.2 to 1.2 µM; in experiment [2], greater than 10 µM.

With `Cc1ccc(-n2c(-c3ccc(N4CCOCC4)nc3)nc3ccncc32)cn1` [Example 64, 4-{5-[3-(6-Methylpyridin-3-yl)-3H-imidazo[4,5-c]pyridin-2-yl]pyridin-2-yl}morpholine], the half-maximal inhibitory concentration (IC50) is 0.2 to 1.2 µM in experiment [1] and greater than 10 µM in experiment [2].

As to `Cc1ccc(-n2c(-c3ccc(N4CCOCC4)nc3)nc3ccncc32)c(F)c1` [Example 67, 4-{5-[3-(2-Fluoro-4-methylphenyl)-3H-imidazo[4,5-c]pyridin-2-yl]pyridin-2-yl}morpholine], the IC50 in experiment [1] is less than 0.05 µM; in experiment [2], 1 to 10 µM.

Consider `Fc1ccc(-n2c(-c3cnc(N4CCCC4)nc3)nc3ccncc32)cc1` [Example 69, 5-[3-(4-Fluorophenyl)-3H-imidazo[4,5-c]pyridin-2-yl]-2-(pyrrolidin-1-yl)pyrimidine], for which the IC50 in experiment [1] is less than 0.05 µM; in experiment [2], greater than 10 µM.

In the case of `CC1CN(c2ccc(-c3nc4ccncc4n3-c3ccc(F)cc3)cn2)CCO1` (centres unmarked) [Example 70, 4-{5-[3-(4-Fluorophenyl)-3H-imidazo[4,5-c]pyridin-2-yl]pyridin-2-yl}-2-methylmorpholine], the IC50 is less than 0.05 µM in experiment [1] and greater than 10 µM in experiment [2].

With `CN(C)c1ccc(-c2nc3ccncc3n2-c2ccc(F)cc2)cn1` [Example 71, 5-[3-(4-Fluorophenyl)-3H-imidazo[4,5-c]pyridin-2-yl]-N,N-dimethylpyridin-2-amine], the half-maximal inhibitory concentration (IC50) was 0.2 to 1.2 µM in experiment [1] and greater than 10 µM in experiment [2].

On to `Clc1ccc(-n2c(-c3cnc(N4CCOCC4)nc3)nc3ccncc32)nc1` [Example 75, 4-{5-[3-(5-Chloropyridin-2-yl)-3H-imidazo[4,5-c]pyridin-2-yl]pyrimidin-2-yl}morpholine; tris(trifluoroacetic acid)], for which the IC50 is less than 0.05 µM in experiment [1] and greater than 10 µM in experiment [2].

Consider `Fc1cc(Cl)ccc1-n1c(-c2cnc(N3CCOCC3)nc2)nc2ccncc21` [Example 77, 4-{5-[3-(4-Chloro-2-fluorophenyl)-3H-imidazo[4,5-c]pyridin-2-yl]pyrimidin-2-yl}morpholine], for which the values for the IC50 in experiment [1] and in experiment [2] were 0.2 to 1.2 µM and greater than 10 µM, respectively.

Regarding `Fc1ccc(-n2c(-c3cnc(N4CCOCC4)nc3)nc3ccncc32)c(F)c1` [Example 78, 4-{5-[3-(2,4-Difluorophenyl)-3H-imidazo[4,5-c]pyridin-2-yl]pyrimidin-2-yl}morpholine], the IC50 in experiment [1] was less than 0.05 µM; in experiment [2] it was greater than 10 µM.

`Fc1cc(Cl)ccc1-n1c(-c2ccc(N3CCOCC3)nc2)nc2ccncc21` [Example 80, 4-{5-[3-(4-Chloro-2-fluorophenyl)-3H-imidazo[4,5-c]pyridin-2-yl]pyridin-2-yl}morpholine]: the figures for the 50% inhibitory concentration (IC50) in experiment [1] and in experiment [2] were 0.05 to 0.2 µM and greater than 10 µM, respectively.

`Clc1ccc(-n2c(-c3ccc(N4CCOCC4)nc3)nc3ccncc32)nc1` [Example 81, 4-{5-[3-(5-Chloropyridin-2-yl)-3H-imidazo[4,5-c]pyridin-2-yl]pyridin-2-yl}morpholine]: the half-inhibitory concentration (IC50) in experiment [1] was less than 0.05 µM; in experiment [2] it was greater than 10 µM.

Regarding `Cc1ccc(-n2c(-c3ccc(N4CCOCC4)nc3)nc3ccncc32)nc1` [Example 82, 4-{5-[3-(5-Methylpyridin-2-yl)-3H-imidazo[4,5-c]pyridin-2-yl]pyridin-2-yl}morpholine], the IC50 was less than 0.05 µM in experiment [1] and greater than 10 µM in experiment [2].

Turning to `CC(=O)NC1CCN(c2ccc(-c3nc4ccncc4n3-c3ccc(Cl)cc3)cn2)CC1` [Example 85, N-(1-{5-[3-(4-Chlorophenyl)-3H-imidazo[4,5-c]pyridin-2-yl]pyridin-2-yl}piperidin-4-yl)acetamide], the IC50 in experiment [1] was less than 0.05 µM; in experiment [2], greater than 10 µM.

Take `CC(=O)N1CCN(c2ccc(-c3nc4ccncc4n3-c3ccc(F)cc3)cn2)CC1` [Example 86, 1-(4-{5-[3-(4-Fluorophenyl)-3H-imidazo[4,5-c]pyridin-2-yl]pyridin-2-yl}piperazin-1-yl)ethan-1-one]: the figures for the IC50 in experiment [1] and in experiment [2] were less than 0.05 µM and greater than 10 µM, respectively.

For `CS(=O)(=O)NC1CCN(c2ccc(-c3nc4ccncc4n3-c3ccc(Cl)cc3)cn2)CC1` [Example 88, N-(1-{5-[3-(4-Chlorophenyl)-3H-imidazo[4,5-c]pyridin-2-yl]pyridin-2-yl}piperidin-4-yl)methanesulfonamide], the IC50 in experiment [1] is less than 0.05 µM; in experiment [2] it was 1 to 10 µM.
